For assay [1], the target named is CRBN (Homo sapiens, UniProt Q96SW2). Kind of assay: Thalidomide analog bead assay with extracts of DF15R cells re-expressing wild type or mutant CRBN. More on the design: re-express full length wild type (CRBN^WT); expressed in transfected cells; host or cells: DF15R (CRBN-deficient myeloma) cells, lentiviral transduction, cell extract. Particulars: recombinant CRBN WT expressed in DF15R; preincubation of cell extracts with free compound. It counts as binding. Here is the method: (§1) DF15, DF15R or DF15R derived cell line extracts were prepared in NP 40 lysis buffer (0.5% NP40, 50 mM Tris HCl (pH 8.0), 150 mM NaCl, 0.5 mM DTT, 0.25 mM PMSF, 1× protease inhibitor mix (Roche, Indianapolis, Ind.) at approximately 2×10^8 cells per ml […]. Cell debris and nucleic acids were cleared by centrifugation (14,000 rpm 30 min 4° C.). In competition experiments 0.5 ml (3-5 mg protein) aliquots of the resulting extracts were preincubated (15 min room temp.) with 5 μl DMSO (control) or 5 μl compound at varying concentrations in DMSO. Thalidomide analog-coupled beads (0.3-0.5 mg) were added to protein extracts and samples rotated (2 hours, 4° C.). Beads were washed three times with 0.5 ml NP40 buffer, and then bound proteins were eluted with SDS-PAGE sample buffer.
(§2) Cell extracts from these lines were then used to assay the ability of CRBN to bind immunomodulatory agent compound.
(§3) Cell extracts from this line were used to assay the ability of CRBN^E377V to bind Immunomodulatory agent compound.

The test system of assay [2] is mouse splenocytes. Nature of the assay: IL2 induction in mouse splenocytes / mouse PBMC treated with anti-CD3. It counts as cell-based. The source says: Data are shown as mean±s.d. (B) Costimulation of IL2 release by anti-CD28 (squares) or pomalidomide (circles) in mouse PBMC treated with anti-CD3. Data are shown as mean±s.d.
Assay [3] has as its target MBP-IKZF1 (a.a. 140-168) / CRBN-DDB1 (Homo sapiens, UniProt Q13422+Q96SW2). As to conditions: 100 uM compound; IKZF1 domain with one predicted zinc finger.
For assay [4], the target named is T1, CRBN (Homo sapiens, UniProt Q96SW2, E377V).
T1 construct: re-express full length wild type (CRBN^WT); expressed in transfected cells; host or cells: DF15R (CRBN-deficient myeloma) cells, lentiviral transduction, cell extract
Nature of the assay: Thalidomide analog bead assay with extracts of DF15R cells re-expressing wild type or mutant CRBN. It counts as binding. Particulars: CRBN E377V mutant; preincubation of cell extracts with free compound. The protocol:
as §1, §2, §3

The test system of assay [5] is H929 and U266 multiple myeloma cell lines. Kind of assay: Cell viability by flow cytometry in CRBN inducible shRNA knockdown cells. Particulars: CRBN inducible knockdown vs shControl; 5 day treatment. Type of assay: cell-based. Here is the method: (A) An inducible shRNA construct targeting CRBN or a control construct was transduced into the multiple myeloma cell lines H929 and U266. Inducible shRNA expression (marked by turbo-RFP) was monitored by flow cytometry over a period of 1 to 9 days as indicated in the histograms (Top row). […] (B) CRBN protein expression was quantified by Western blotting. […] (D)-(F) After 9 days of shRNA inducible knock-down, cells were treated with increasing doses of pomalidomide and compound effect in cell viability was assayed by flow cytometry after 5 day treatment. […] Data are shown as mean of three independent experiments±s.d.
Inducible shRNA constructs targeting CRBN or a control construct (Open Biosystems) were transduced using spinoculation methodology into the multiple myeloma cell lines H929 and U266. Stably transduced cells were selected with puromycin. Inducible shRNA expression (marked by RFP) was monitored by fluorescence microscopy and flow cytometry using 1 μg/mL doxycycline. CRBN protein expression was quantified by Western blotting. Cell proliferation and viability were assessed by 7AAD/flow cytometry assays.

The test system of assay [6] is DF15R myeloma cells. Kind of assay: Cell proliferation assay of DF15R cells re-expressing wild type or mutant CRBN treated with pomalidomide. Type of assay: cell-based. The protocol:
(A) Cell lines re-expressing full-length CRBN wild-type. W386A or W400A mutants were tested for the ability to bind immunomodulatory agent compounds. Assay was repeated at least three times. Representative Western blot of representative experiment is shown. (B) Cell proliferation assay of DF15 (sensitive). DF15R (resistant; CRBN^null), CRBNWT, CRBNW386A; CRBN400 cells treated with a dose response of pomalidomide. Assays were done in triplicate and error bars representative s.d. Data for each cell line was normalized to treatment with vehicle (DMSO). (C) Western blots of key downstream effectors of immunomodulatory agent resistance.
(A) Cell lines re-expressing RFP or full length CRBN wild type or E377V mutant were tested for the ability of CRBN proteins to bind immunomodulatory agent compounds. Assay was repeated at least three times. Representative Western blot of representative experiment is shown. (B) Cell proliferation assay of DF15 (sensitive), DF15R (resistant; CRBN^null), CRBN^WT, CRBN^E377V cells treated with a dose response of pomalidomide. Assays were done in triplicate and error bars represent s.d. Data for each cell line was normalized to treatment with vehicle (DMSO).
The antiproliferative effect of immunomodulatory agent compounds on myeloma cells is mediated through CRBN protein. […]

For assay [7], the system named is human PBMCs. Kind of assay: IL2 release co-stimulation in human PBMCs treated with anti-CD3. Type of assay: cell-based.

Turning to `Nc1cccc2c1C(=O)N(C1CCC(=O)NC1=O)C2=O` (centres unmarked) [pomalidomide], the “competition for CRBN binding to thalidomide analog-beads” value in assay [1] was “competed for binding to the beads”; in assay [4] it was “competed”. In addition, the IL-2 induction entry in assay [2] is “resistant to the IL-2 inducing effects”. In assay [3], the “pull down of CRBN-DDB1 by minimal IKZF1 domain” value is on record as “sufficient to pull down CRBN-DDB1”. Besides, the “anti-proliferative effects in CRBN knockdown cells” value in assay [5] is recorded as “reduced anti-proliferative effects”. For the same compound, in assay [6] (DF15R re-expressing CRBN E377V), the antiproliferative sensitivity entry was “unable to rescue sensitivity”. The antiproliferative effect entry in assay [6] (DF15R re-expressing CRBN WT) is “regained antiproliferative effect”. The IL2 release result in assay [7] is reported as “Co-stimulation of IL2 release”.

The record behind these values is US10830762B2, “Compositions and methods for inducing conformational changes in cereblon and other E3 ubiquitin ligases” (Celgene Corporation, priority 2015, dated 2020).
